Legend:
MCF7 = assay: Antiproliferative against human MCF-7 cells assessed as reduction in cell viability by MTT assay; type: functional, cell-based
A549 = assay: Antiproliferative against human A549 cells assessed as reduction in cell viability by MTT assay; type: functional, cell-based
[1] = target: T1, Hepatocyte growth factor receptor (Homo sapiens, UniProt P08581); details: dose 100.0 nM
Description: Inhibition of c-MET (unknown origin) at 100 nM relative to control

Histone deacetylase 1 [2] = target: T2, Histone deacetylase 1 (Homo sapiens, UniProt Q13547); details: dose 100.0 nM
Description: Inhibition of HDAC1 (unknown origin) at 100 nM relative to control

[3] = target: T1, Hepatocyte growth factor receptor; assay: Inhibition of c-MET (unknown origin)
Histone deacetylase 1 [4] = target: T2, Histone deacetylase 1; assay: Inhibition of HDAC1 (unknown origin)

T1 sequence (P08581 whole entry): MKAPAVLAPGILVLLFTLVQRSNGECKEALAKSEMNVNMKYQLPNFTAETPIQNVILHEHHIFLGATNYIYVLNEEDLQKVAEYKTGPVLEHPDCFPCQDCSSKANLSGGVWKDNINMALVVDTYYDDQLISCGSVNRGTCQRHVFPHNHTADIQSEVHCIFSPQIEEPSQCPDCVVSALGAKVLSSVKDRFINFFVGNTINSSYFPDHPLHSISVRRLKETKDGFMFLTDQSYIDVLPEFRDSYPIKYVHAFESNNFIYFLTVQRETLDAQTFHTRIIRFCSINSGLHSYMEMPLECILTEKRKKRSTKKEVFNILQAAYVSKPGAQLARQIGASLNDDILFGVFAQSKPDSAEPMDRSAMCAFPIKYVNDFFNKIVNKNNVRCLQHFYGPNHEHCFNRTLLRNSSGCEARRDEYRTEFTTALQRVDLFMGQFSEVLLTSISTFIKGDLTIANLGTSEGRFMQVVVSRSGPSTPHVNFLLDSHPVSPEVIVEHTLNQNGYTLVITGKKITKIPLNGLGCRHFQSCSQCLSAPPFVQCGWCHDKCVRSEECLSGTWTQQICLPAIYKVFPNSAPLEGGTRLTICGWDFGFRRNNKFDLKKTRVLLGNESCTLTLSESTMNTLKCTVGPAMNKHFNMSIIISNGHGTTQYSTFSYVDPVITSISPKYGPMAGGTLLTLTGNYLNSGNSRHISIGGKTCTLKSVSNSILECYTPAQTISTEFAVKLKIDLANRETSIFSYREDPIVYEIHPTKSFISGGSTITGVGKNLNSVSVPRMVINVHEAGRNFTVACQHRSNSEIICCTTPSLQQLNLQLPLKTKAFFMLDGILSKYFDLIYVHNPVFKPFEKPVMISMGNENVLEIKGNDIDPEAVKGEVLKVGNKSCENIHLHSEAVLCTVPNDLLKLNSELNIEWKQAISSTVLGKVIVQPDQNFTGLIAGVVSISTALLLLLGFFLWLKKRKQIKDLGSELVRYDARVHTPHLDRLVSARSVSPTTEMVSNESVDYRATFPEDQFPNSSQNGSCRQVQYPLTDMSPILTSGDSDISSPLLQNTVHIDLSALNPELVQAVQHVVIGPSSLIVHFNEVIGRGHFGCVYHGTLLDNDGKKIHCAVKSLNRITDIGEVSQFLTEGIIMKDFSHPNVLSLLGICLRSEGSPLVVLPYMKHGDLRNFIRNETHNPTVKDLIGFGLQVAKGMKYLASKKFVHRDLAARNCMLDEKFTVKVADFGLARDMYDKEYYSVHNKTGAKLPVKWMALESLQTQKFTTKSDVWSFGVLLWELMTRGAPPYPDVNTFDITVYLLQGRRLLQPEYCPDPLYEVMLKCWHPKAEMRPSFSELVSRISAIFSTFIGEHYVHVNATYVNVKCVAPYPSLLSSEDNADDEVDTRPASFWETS
T2 sequence (Q13547 whole entry): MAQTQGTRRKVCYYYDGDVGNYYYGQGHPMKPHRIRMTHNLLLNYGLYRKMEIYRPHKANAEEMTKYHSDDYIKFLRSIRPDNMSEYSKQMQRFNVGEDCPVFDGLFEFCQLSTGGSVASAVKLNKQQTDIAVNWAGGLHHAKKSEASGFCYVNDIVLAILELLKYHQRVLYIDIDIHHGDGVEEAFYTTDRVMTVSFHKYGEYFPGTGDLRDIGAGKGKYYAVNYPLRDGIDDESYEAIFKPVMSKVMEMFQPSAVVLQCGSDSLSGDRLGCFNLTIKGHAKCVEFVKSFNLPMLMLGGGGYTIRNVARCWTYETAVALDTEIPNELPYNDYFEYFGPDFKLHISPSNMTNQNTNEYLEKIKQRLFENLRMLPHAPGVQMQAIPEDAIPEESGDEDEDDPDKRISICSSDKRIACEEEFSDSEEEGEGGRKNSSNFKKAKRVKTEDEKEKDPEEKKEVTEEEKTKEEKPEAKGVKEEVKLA

## COc1ccccc1NC(=O)Nc1ccc(Oc2ccnc3cc(OCCCCCCC(=O)NO)c(OC)cc23)cc1
MCF7
  IC50: 6280 nM
A549
  IC50: 16200 nM
[1]
  inhibition: 31.9%

## COc1cc2c(Oc3ccc(NC(=O)C4(C(=O)Nc5ccc(F)cc5)CC4)cc3F)ccnc2cc1OCCCN1CCOCC1 [FORETINIB]
MCF7
  IC50: 560 nM
A549
  IC50: 910 nM
Histone deacetylase 1 [2]
  inhibition: 38.6%

## COc1cc2nccc(Oc3ccc(NC(=O)C4(C(=O)Nc5ccc(F)cc5)CC4)cc3)c2cc1OC [CABOZANTINIB]
MCF7
  IC50: 5400 nM
A549
  IC50: 7210 nM
Histone deacetylase 1 [2]
  inhibition: 20.9%

## COc1cc2c(Oc3ccc(NC(=O)Nc4ccccc4)cc3)ccnc2cc1OCCCCCCC(=O)NO
[3]
  IC50: 17 nM
MCF7
  IC50: 1040 nM
A549
  IC50: 1650 nM
[1]
  inhibition: 48%
Histone deacetylase 1 [2]
  inhibition: 23.1%
Histone deacetylase 1 [4]
  IC50: 75 nM

## COc1cc2c(Oc3ccc(NC(=O)Nc4ccccc4Cl)cc3)ccnc2cc1OCCCCCCC(=O)NO
MCF7
  IC50: 2780 nM
A549
  IC50: 1910 nM
[1]
  inhibition: 30.4%
Histone deacetylase 1 [2]
  inhibition: 45.2%

## COc1cc2c(Oc3ccc(NC(=O)NCCc4ccccc4)cc3)ccnc2cc1OCCCCCCC(=O)NO
MCF7
  IC50: 4120 nM
A549
  IC50: 9040 nM
[1]
  inhibition: 14.3%
Histone deacetylase 1 [2]
  inhibition: 88%

## COc1cc2c(Oc3ccc(NC(=O)Nc4ccc(C)cc4C)cc3)ccnc2cc1OCCCCCCC(=O)NO
MCF7
  IC50: 3430 nM
A549
  IC50: 5490 nM
[1]
  inhibition: 44.7%
Histone deacetylase 1 [2]
  inhibition: 26.4%

## COc1cc2c(Oc3ccc(NC(=O)N/N=C/c4ccccc4)cc3)ccnc2cc1OCCCCCCC(=O)NO
MCF7
  IC50: 610 nM
A549
  IC50: 3700 nM
[1]
  inhibition: 75.9%

## COc1cc2c(Oc3ccc(NC(=O)N/N=C/c4ccc(F)cc4)cc3)ccnc2cc1OCCCCCCC(=O)NO
MCF7
  IC50: 1360 nM
A549
  IC50: 4920 nM
[1]
  inhibition: 24.2%
Histone deacetylase 1 [2]
  inhibition: 56.1%

## COc1cc2c(Oc3ccc(NC(=O)Nc4ccc(Cl)c(C(F)(F)F)c4)cc3)ccnc2cc1OCCCCCCC(=O)NO
MCF7
  IC50: 5150 nM
A549
  IC50: 5020 nM
[1]
  inhibition: 94.8%
Histone deacetylase 1 [2]
  inhibition: 40.9%

## COc1cc2c(Oc3ccc(NC(=O)NC4CCCCC4)cc3)ccnc2cc1OCCCCCCC(=O)NO
[3]
  IC50: 21.4 nM
MCF7
  IC50: 600 nM
A549
  IC50: 850 nM
[1]
  inhibition: 38%
Histone deacetylase 1 [2]
  inhibition: 14.1%
Histone deacetylase 1 [4]
  IC50: 45.2 nM

## COc1cc2c(Oc3ccc(NC(=O)Nc4cccc(C)c4)cc3)ccnc2cc1OCCCCCCC(=O)NO
MCF7
  IC50: 1240 nM
A549
  IC50: 2010 nM
[1]
  inhibition: 25.7%
Histone deacetylase 1 [2]
  inhibition: 66.6%

## COc1cc2c(Oc3ccc(NC(=O)Nc4ccccc4F)cc3)ccnc2cc1OCCCCCCC(=O)NO
[3]
  IC50: 39.2 nM
MCF7
  IC50: 660 nM
A549
  IC50: 870 nM
[1]
  inhibition: 95.5%
Histone deacetylase 1 [2]
  inhibition: 32.1%
Histone deacetylase 1 [4]
  IC50: 131 nM

## COc1cc2c(Oc3ccc(NC(=O)Nc4ccc(C(F)(F)F)cc4Cl)cc3)ccnc2cc1OCCCCCCC(=O)NO
[3]
  IC50: 41.2 nM
MCF7
  IC50: 500 nM
A549
  IC50: 970 nM
[1]
  inhibition: 93.1%
Histone deacetylase 1 [2]
  inhibition: 28.1%
Histone deacetylase 1 [4]
  IC50: 148 nM

## COc1cc2c(Oc3ccc(NC(=O)NNC(=O)c4ccccc4F)cc3)ccnc2cc1OCCCCCCC(=O)NO
MCF7
  IC50: 3600 nM
A549
  IC50: 2420 nM
[1]
  inhibition: 81.4%
Histone deacetylase 1 [2]
  inhibition: 28.7%

## COc1cc2c(Oc3ccc(NC(=O)Nc4ccccc4C(F)(F)F)cc3)ccnc2cc1OCCCCCCC(=O)NO
MCF7
  IC50: 1080 nM
A549
  IC50: 5280 nM
[1]
  inhibition: 28.6%
Histone deacetylase 1 [2]
  inhibition: 76.6%

## COc1cc2c(Oc3ccc(NC(=O)NNC(=O)c4cccc(C)c4)cc3)ccnc2cc1OCCCCCCC(=O)NO
MCF7
  IC50: 5830 nM
A549
  IC50: 8190 nM
[1]
  inhibition: 29.9%
Histone deacetylase 1 [2]
  inhibition: 67.6%

## COc1cc2c(Oc3ccc(NC(=O)Nc4ccc(OC(F)(F)F)cc4)cc3)ccnc2cc1OCCCCCCC(=O)NO
MCF7
  IC50: 3200 nM
A549
  IC50: 3130 nM
[1]
  inhibition: 29.8%
Histone deacetylase 1 [2]
  inhibition: 11.7%

## COc1cc2c(Oc3ccc(NC(=O)NNC(=O)c4ccccc4)cc3)ccnc2cc1OCCCCCCC(=O)NO
MCF7
  IC50: 2450 nM
A549
  IC50: 2820 nM
[1]
  inhibition: 38.5%
Histone deacetylase 1 [2]
  inhibition: 34.4%

## COc1cc2c(Oc3ccc(NC(=O)N/N=C/c4ccccc4F)cc3)ccnc2cc1OCCCCCCC(=O)NO
MCF7
  IC50: 1610 nM
A549
  IC50: 7780 nM
[1]
  inhibition: 81.5%
Histone deacetylase 1 [2]
  inhibition: 10.4%
